The results in this text go back to patent US20240317777A1, “NOVEL MACROCYCLIC AMINOPYRAZOLE COMPOUNDS AS CDK2 INHIBITORS” (Accutar Biotechnology Inc., priority 2023, published 2024).

Test [1] deals with Phospho-Rb (Ser807/811) in OVCAR3 cells. The test can be described thus: Phospho-Rb expression inhibition in OVCAR3 cells quantified by In Cell Western. The test is classed as cell-based. The note with it: Homo sapiens, OVCAR-3, 24 hours, read-out: OVCAR-3 pRb IC50. The method, boiled down:
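In-cell western: after 24 h compound exposure at 37° C, fixed OVCAR3 cells co-stained for pRb Ser807/811 (800 nm channel) and total Rb (680 nm channel), imaged by LI-COR Odyssey.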

Test [2] addresses CDK9-CYCLIN T1 (Homo sapiens, UniProt P50750). The test can be described thus: CDK protein kinase inhibition by ADP-Glo assay, CDK9-CYCLIN T1. As to conditions: for IC50: ADP-Glo, 1000 μM ATP; for CDK2 Fold selectivity, CDK9: CDK2 versus CDK9. It is filed as biochemical. The gist of the method:
(§1)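 Compounds were incubated at 22° C with the CDK/cyclin complex, peptide substrate, 1000 μM ATP and 5 mM MgCl2. The reaction was then quenched and ADP formation quantified by luminescence using ADP-Glo reagents.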

The target of test [3] is CDK1-CYCLIN B (Homo sapiens, UniProt P06493). Description: CDK protein kinase inhibition by ADP-Glo assay, CDK1-CYCLIN B. The test is classed as biochemical. As to conditions: for IC50: ADP-Glo, 1000 μM ATP, read-out: CDK1-CYCLINB, IC50; for CDK2 Fold selectivity, CDK1: CDK2 versus CDK1. The method, boiled down: as §1
In test [4] the test system is CCNE1-normal SKOV3 cells. The test can be described thus: Cell growth inhibition of CCNE1-normal SKOV3 cells (CellTiter-Glo). The note with it: Homo sapiens, SK-OV-3, 144 h, 6 days. It is filed as cell-based. The method, boiled down:
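Growth was measured by CellTiter-Glo luminescence after 6 days' compound exposure at 37 °C. Cells were plated one day before dosing at 1000 per well in medium with 10% FBS, and compounds were diluted from DMSO stocks.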

The target in test [5] is CDK6-CYCLIN D3 (Homo sapiens, UniProt Q00534). The test can be described thus: CDK protein kinase inhibition by ADP-Glo assay, CDK6-CYCLIN D3. It is filed as biochemical. As to conditions: for IC50: ADP-Glo, 1000 μM ATP, read-out: CDK6-CYCLIND3, IC50; for CDK2 Fold selectivity, CDK6: CDK2 versus CDK6. The gist of the method: as §1
Test [6] concerns the target CDK4-CYCLIN D1 (Homo sapiens, UniProt P11802). The test can be described thus: CDK protein kinase inhibition by ADP-Glo assay, CDK4-CYCLIN D1. It is filed as biochemical. As to conditions: for IC50: ADP-Glo, 1000 μM ATP, read-out: CDK4-CYCLIND1, IC50; for CDK2 Fold selectivity, CDK4: CDK2 versus CDK4. The method, boiled down:
as §1

Test [7] addresses CDK2-CYCLIN E1 (Homo sapiens, UniProt P24941). The test can be described thus: CDK protein kinase inhibition by ADP-Glo assay, CDK2-CYCLIN E1. The test is classed as biochemical. As to conditions: ADP-Glo, 1000 μM ATP, read-out: CDK2-CYCLINE, IC50. The method, boiled down:
as §1

Test [8] has as its system CCNE1-amplified OVCAR3 cells. Description: Cell growth inhibition of CCNE1-amplified OVCAR3 cells (CellTiter-Glo). It is filed as cell-based. The note with it: Homo sapiens, OVCAR-3, 144 h, 6 days. The gist of the method:
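Growth read-out was CellTiter-Glo luminescence, taken after 10 min at room temperature at the end of a 6-day compound exposure at 37 °C. Compounds were diluted from DMSO stocks across various concentrations.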

The mark [9] stands for this setting: Table 11, read-out: CDK9-CYCLINT1, IC50.
The mark [10] stands for this setting: Table 21, read-out: CDK9-CYCLINT1, IC50.

Read-outs that look alike come from different tables or passages of the source.

Chain of CDK1-CYCLIN B (P06493 whole entry): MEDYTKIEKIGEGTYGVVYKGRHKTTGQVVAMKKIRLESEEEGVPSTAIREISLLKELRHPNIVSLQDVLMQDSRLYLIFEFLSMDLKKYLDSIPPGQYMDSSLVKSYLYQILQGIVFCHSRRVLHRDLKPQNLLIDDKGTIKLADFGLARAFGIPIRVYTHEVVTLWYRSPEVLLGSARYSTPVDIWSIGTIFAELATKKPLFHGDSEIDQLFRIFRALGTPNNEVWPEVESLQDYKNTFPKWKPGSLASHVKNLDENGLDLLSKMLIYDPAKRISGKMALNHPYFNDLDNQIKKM
Chain of CDK1-CYCLIN B (P14635 whole entry partner): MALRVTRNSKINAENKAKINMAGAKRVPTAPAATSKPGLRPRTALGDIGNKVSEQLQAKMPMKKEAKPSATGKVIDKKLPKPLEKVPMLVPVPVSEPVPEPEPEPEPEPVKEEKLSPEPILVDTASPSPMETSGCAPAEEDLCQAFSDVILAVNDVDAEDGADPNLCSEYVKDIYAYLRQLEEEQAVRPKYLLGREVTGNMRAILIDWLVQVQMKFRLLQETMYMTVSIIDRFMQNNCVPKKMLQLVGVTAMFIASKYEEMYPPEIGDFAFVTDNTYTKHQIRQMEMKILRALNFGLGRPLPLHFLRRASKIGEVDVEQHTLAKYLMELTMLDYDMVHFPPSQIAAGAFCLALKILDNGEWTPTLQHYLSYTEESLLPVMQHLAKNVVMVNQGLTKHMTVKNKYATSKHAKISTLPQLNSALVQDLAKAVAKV
Chain of CDK9-CYCLIN T1 (P50750 whole entry): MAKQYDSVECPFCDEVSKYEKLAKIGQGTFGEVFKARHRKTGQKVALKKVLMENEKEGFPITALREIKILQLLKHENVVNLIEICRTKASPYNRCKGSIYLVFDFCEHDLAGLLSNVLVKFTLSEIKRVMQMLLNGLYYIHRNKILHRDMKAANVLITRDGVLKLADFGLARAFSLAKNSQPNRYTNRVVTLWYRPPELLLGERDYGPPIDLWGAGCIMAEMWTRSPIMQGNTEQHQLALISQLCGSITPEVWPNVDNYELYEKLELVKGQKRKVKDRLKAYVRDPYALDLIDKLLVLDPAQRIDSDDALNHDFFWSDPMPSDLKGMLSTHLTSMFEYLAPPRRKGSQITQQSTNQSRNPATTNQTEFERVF
Chain of CDK9-CYCLIN T1 (O60563 whole entry partner): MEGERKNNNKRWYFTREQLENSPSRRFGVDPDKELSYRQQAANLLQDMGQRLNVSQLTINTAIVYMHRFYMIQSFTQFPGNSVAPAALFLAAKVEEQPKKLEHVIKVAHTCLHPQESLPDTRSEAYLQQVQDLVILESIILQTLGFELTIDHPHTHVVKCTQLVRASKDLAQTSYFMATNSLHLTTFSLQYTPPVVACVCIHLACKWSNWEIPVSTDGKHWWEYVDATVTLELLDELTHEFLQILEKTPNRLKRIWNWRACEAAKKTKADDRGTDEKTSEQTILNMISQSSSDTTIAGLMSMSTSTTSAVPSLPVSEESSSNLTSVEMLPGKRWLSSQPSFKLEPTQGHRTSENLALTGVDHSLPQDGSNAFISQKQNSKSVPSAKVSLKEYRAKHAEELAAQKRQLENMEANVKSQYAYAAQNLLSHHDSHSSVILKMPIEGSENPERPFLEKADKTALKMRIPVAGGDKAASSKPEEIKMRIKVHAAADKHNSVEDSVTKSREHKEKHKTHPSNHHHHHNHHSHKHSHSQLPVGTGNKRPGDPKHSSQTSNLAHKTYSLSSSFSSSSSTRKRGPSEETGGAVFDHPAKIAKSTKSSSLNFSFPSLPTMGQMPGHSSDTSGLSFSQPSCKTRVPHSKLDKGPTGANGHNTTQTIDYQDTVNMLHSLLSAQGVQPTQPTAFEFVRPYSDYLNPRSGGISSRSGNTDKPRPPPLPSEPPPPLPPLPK
Chain of CDK6-CYCLIN D3 (Q00534 whole entry): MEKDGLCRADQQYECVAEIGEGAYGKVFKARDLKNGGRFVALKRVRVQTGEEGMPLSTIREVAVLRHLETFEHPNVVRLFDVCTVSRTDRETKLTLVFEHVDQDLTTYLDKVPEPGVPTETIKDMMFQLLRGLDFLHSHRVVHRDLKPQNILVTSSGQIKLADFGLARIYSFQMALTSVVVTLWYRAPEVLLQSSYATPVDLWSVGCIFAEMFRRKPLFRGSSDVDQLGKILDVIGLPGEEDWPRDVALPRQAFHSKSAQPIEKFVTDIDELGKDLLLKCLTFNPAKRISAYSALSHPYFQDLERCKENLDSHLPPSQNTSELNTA
Chain of CDK6-CYCLIN D3 (P30281 whole entry partner): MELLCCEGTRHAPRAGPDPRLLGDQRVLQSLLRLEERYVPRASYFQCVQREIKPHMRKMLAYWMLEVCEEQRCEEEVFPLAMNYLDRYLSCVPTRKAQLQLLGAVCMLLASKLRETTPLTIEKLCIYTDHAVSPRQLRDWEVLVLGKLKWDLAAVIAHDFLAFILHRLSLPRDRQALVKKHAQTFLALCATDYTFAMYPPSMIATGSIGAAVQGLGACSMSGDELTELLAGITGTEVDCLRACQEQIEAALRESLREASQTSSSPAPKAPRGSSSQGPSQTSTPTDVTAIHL
Chain of CDK4-CYCLIN D1 (P11802 whole entry): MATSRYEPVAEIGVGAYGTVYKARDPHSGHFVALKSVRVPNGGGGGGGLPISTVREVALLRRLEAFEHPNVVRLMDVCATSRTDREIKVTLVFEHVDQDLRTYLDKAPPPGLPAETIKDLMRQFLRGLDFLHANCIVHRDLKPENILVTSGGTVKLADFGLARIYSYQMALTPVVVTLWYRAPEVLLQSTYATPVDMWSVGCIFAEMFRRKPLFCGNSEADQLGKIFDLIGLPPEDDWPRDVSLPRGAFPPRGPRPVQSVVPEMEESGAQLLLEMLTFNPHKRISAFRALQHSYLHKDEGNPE
Chain of CDK4-CYCLIN D1 (P24385 whole entry partner): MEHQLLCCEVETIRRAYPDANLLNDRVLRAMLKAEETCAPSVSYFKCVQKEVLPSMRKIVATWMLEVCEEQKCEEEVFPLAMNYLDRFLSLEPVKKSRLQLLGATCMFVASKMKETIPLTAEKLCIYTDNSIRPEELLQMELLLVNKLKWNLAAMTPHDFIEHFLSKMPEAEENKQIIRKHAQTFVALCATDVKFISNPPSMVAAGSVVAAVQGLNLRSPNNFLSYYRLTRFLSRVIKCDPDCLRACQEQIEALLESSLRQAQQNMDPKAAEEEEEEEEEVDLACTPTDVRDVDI

`C[C@H]1CCCNC(=O)O[C@@H]2CC[C@@H](C2)c2cc([nH]n2)Nc2ccnc(c2)O1` [compound 12]: the IC50 in test [1] was in the range of 2 to 10 nM; in test [2] (setting [9]), 100 to 500 nM; in test [3] (Table 11), 10 to 50 nM; in test [4] it was 250 to 1250 nM; in test [5] (Table 11), 100 to 500 nM; in test [6] (Table 11), 100 to 500 nM. The values for the IC50 in test [7] (Table 11) and in test [8] were not above 10 nM and 10 to 50 nM, respectively.

`C[C@@H]1CC[C@H](C)Oc2cncc(c2)Nc2cc(n[nH]2)[C@H]2CC[C@H](C2)OC(=O)N1` [Compound 152, (1^1S,1^3R,6S,9R,Z)-6,9-dimethyl-2^1H-5,12-dioxa-3,10-diaza-4(3,5)-pyridina-2(3,5)-pyrazola-1(1,3)-cyclopentanacyclododecaphan-11-one]: the IC50 fell in the range of 2 to 10 nM in test [1]; 100 to 500 nM in test [2] (setting [10]); 10 to 50 nM in test [3] (Table 21); 250 to 1250 nM in test [4]; 50 to 100 nM in test [5] (Table 21); 50 to 100 nM in test [6] (Table 21). Besides, the IC50 is not above 10 nM in test [7] (Table 21) and 10 to 50 nM in test [8]. For the same molecule, in test [2] (Table 22), the “CDK2 Fold selectivity, CDK9” value is “D (D, >20 and ≤50)”. Further, the “CDK2 Fold selectivity, CDK1” value in test [3] (Table 22) is recorded as “E (E, <20)”. The “CDK2 Fold selectivity, CDK6” value in test [5] (Table 22) is reported as “E (E, <20)”. For the same molecule, in test [6] (Table 22), the “CDK2 Fold selectivity, CDK4” value is “D (D, >20 and ≤50)”.

In the case of `C[C@H]1Oc2cncc(c2)Nc2cc(n[nH]2)[C@H]2CC[C@H](C2)OC(=O)N[C@H]2C[C@H]1C2` [Compound 148, (1^1S,1^3R,7^1R,7^3R,6R,Z)-6-methyl-2^1H-5,10-dioxa-3,8-diaza-4(3,5)-pyridina-2(3,5)-pyrazola-1(1,3)-cyclopentana-7(1,3)-cyclobutanacyclodecaphan-9-one], the IC50 is not above 2 nM in test [1]; 100 to 500 nM in test [2] (setting [10]); 10 to 50 nM in test [3] (Table 21); 250 to 1250 nM in test [4]; 50 to 100 nM in test [5] (Table 21); 50 to 100 nM in test [6] (Table 21). Moreover, the half-maximal inhibitory concentration (IC50) in test [7] (Table 21) is not above 10 nM; in test [8], 2 to 10 nM. Further, in test [2] (Table 22), the “CDK2 Fold selectivity, CDK9” value is “D (D, >20 and ≤50)”. The “CDK2 Fold selectivity, CDK1” value in test [3] (Table 22) was “E (E, <20)”. Also, in test [5] (Table 22), the “CDK2 Fold selectivity, CDK6” value was “D (D, >20 and ≤50)”. Also, in test [6] (Table 22), the “CDK2 Fold selectivity, CDK4” value is reported as “E (E, <20)”.

On to `O=C1NC23CC(CCOc4cncc(c4)Nc4cc(n[nH]4)[C@H]4CC[C@H](C4)O1)(C2)C3` [Compound 117, (1^1S,1^3R,Z)-2^1H-5,11-dioxa-3,9-diaza-4(3,5)-pyridina-2(3,5)-pyrazola-8(1,3)-bicyclo[1.1.1]pentana-1(1,3)-cyclopentanacycloundecaphan-10-one], for which the IC50 in test [1] was not above 2 nM; in test [2] (setting [9]), 10 to 50 nM; in test [3] (Table 11) it was not above 10 nM; in test [4] it was 50 to 250 nM; in test [5] (Table 11), 10 to 50 nM; in test [6] (Table 11), 10 to 50 nM. Also, the IC50 in test [7] (Table 11) is not above 10 nM; in test [8], not above 2 nM. The “CDK2 Fold selectivity, CDK9” value in test [2] (Table 12) was “D (D, >20 and ≤50)”. For the same molecule, the “CDK2 Fold selectivity, CDK1” value in test [3] (Table 12) was “E (E, <20)”. For the same molecule, the “CDK2 Fold selectivity, CDK6” value in test [5] (Table 12) is “E (E, <20)”. The “CDK2 Fold selectivity, CDK4” value in test [6] (Table 12) is listed as “E (E, <20)”.

Take `[2H]C1([2H])CC[C@H](C)NC(=O)O[C@@H]2CC[C@@H](C2)c2cc([nH]n2)Nc2ccnc(c2)O1` [Compound 173, (1^1S,1^3R,9S,Z)-9-methyl-2^1H-5,12-dioxa-3,10-diaza-4(4,2)-pyridina-2(3,5)-pyrazola-1(1,3)-cyclopentanacyclododecaphan-11-one-6,6-d2]: the IC50 in test [1] is 10 to 50 nM; in test [2] (Table 27, read-out: CDK9-CYCLINT1 IC50) it was more than 500 nM; in test [3] (Table 27), 100 to 500 nM; in test [4], more than 1250 nM; in test [5] (Table 27), more than 500 nM; in test [6] (Table 27), 100 to 500 nM. Further, the IC50 in test [7] (Table 27) was 10 to 50 nM; in test [8], 50 to 250 nM. The “CDK2 Fold selectivity, CDK9” value in test [2] (Table 28) is “D (D, >20 and ≤50)”. In addition, in test [3] (Table 28), the “CDK2 Fold selectivity, CDK1” value was “E (E, <20)”. Besides, the “CDK2 Fold selectivity, CDK6” value in test [5] (Table 28) is “D (D, >20 and ≤50)”. In test [6] (Table 28), the “CDK2 Fold selectivity, CDK4” value is “D (D, >20 and ≤50)”.

On to `C[C@H]1CCCOc2cncc(c2)Nc2cc(n[nH]2)[C@H]2CC[C@H](C2)OC(=O)N1` [Compound 119, (1^1S,1^3R,9S,Z)-9-methyl-2^1H-5,12-dioxa-3,10-diaza-4(3,5)-pyridina-2(3,5)-pyrazola-1(1,3)-cyclopentanacyclododecaphan-11-one], for which the IC50 in test [1] was 2 to 10 nM; in test [2] (Table 13, read-out: CDK9-CYCLINT1, IC50) it was 100 to 500 nM; in test [3] (Table 13), 10 to 50 nM; in test [4], more than 1250 nM; in test [5] (Table 13) it was 10 to 50 nM; in test [6] (Table 13), 100 to 500 nM. In addition, the IC50 in test [7] (Table 13) is not above 10 nM; in test [8], 10 to 50 nM. Besides, the “CDK2 Fold selectivity, CDK9” value in test [2] (Table 14) was “C (C, >50 and ≤100)”. For the same molecule, in test [3] (Table 14), the “CDK2 Fold selectivity, CDK1” value was “D (D, >20 and ≤50)”. For the same molecule, in test [5] (Table 14), the “CDK2 Fold selectivity, CDK6” value is “E (E, <20)”. For the same molecule, in test [6] (Table 14), the “CDK2 Fold selectivity, CDK4” value was “C (C, >50 and ≤100)”.

For `C[C@@H]1NC(=O)O[C@@H]2CC[C@@H](C2)c2cc([nH]n2)Nc2ccnc(c2)OCCC1(F)F` [Compound 181, (1^1S,1^3R,9S,Z)-8,8-difluoro-9-methyl-2^1H-5,12-dioxa-3,10-diaza-4(4,2)-pyridina-2(3,5)-pyrazola-1(1,3)-cyclopentanacyclododecaphan-11-one], the IC50 in test [1] is 10 to 50 nM; in test [2] (Table 29, read-out: CDK9-CYCLINT1, IC50), 100 to 500 nM; in test [3] (Table 29), 100 to 500 nM; in test [4] it was 250 to 1250 nM; in test [5] (Table 29), more than 500 nM; in test [6] (Table 29), more than 500 nM. Further, the IC50 is not above 10 nM in test [7] (Table 29) and 10 to 50 nM in test [8]. The “CDK2 Fold selectivity, CDK9” value in test [2] (Table 30) was “D (D, >20 and ≤50)”. Further, in test [3] (Table 30), the “CDK2 Fold selectivity, CDK1” value is “D (D, >20 and ≤50)”. Further, the “CDK2 Fold selectivity, CDK6” value in test [5] (Table 30) is “C (C, >50 and ≤100)”. For the same molecule, the “CDK2 Fold selectivity, CDK4” value in test [6] (Table 30) is “C (C, >50 and ≤100)”.
